The target in test [1] is soluble human BACE1 catalytic domain (Homo sapiens (Human), UniProt P56817). In words: BACE1 HTRF FRET Assay. It counts as biochemical. Particulars: for Ki: Ki calculated from IC50 using the Cheng-Prusoff equation. An excerpt:
A homogeneous time-resolved FRET assay can be used to determine IC50 values for inhibitors of the soluble human BACE1 catalytic domain. This assay monitors the increase of 620 nm fluorescence that resulted from BACE1 cleavage of an APPswedish APP^swe mutant peptide FRET substrate (QSY7-[…]-Europium-amide). This substrate contains an N-terminal QSY7 moiety that serves as a quencher of the C-terminal Europium fluorophore (620 nm Em). In the absence of enzyme activity, 620 nm fluorescence is low in the assay and increased linearly over 3 hours in the presence of uninhibited BACE1 enzyme Inhibition of BACE1 cleavage of the QSY7-APP^swe-Eu substrate by inhibitors is manifested as a suppression of 620 nm fluorescence.
Reactions are initiated by addition of 10 μl of 600 nM QSY7-APP^swe-Eu substrate (200 nM final) to give a final reaction volume of 30 μl in a 384 well Nunc HTRF plate. The reactions are incubated at 30° C. for 1.5 hours. The 620 nm fluorescence is then read on a Rubystar HTRF plate reader (BMG Labtechnologies) using a 50 millisecond delay followed by a 400 millisecond acquisition time window Inhibitor IC50 values are derived from non-linear regression analysis of concentration response curves.

Test [2] concerns the target purified human autoBACE-2 (Homo sapiens (Human), UniProt Q9Y5Z0). In words: BACE-2 Assay (BACE-HTRF assay). In kind it is biochemical. The note with it: Ki calculated from IC50 using the Cheng-Prusoff equation; read-out: BACE2 Ki. As to the method: Inhibitor IC50s at purified human autoBACE-2 are determined in a time-resolved endpoint proteolysis assay that measures hydrolysis of the QSY7-[…]-Eu-amide FRET peptide substrate (BACE-HTRF assay). […] DMSO is present at 5% final concentration in the assay. Following laser excitation of sample wells at 320 nm, the fluorescence signal at 620 nm is collected for 400 ms following a 50 μs delay on a RUBYstar HTRF plate reader (BMG Labtechnologies). Raw RFU data is normalized to maximum (1.0 nM BACE/DMSO) and minimum (no enzyme/DMSO) RFU values. […] The Ki values are calculated from the IC50 using the Cheng-Prusoff equation.

Sequence of soluble human BACE1 catalytic domain (P56817 75-416): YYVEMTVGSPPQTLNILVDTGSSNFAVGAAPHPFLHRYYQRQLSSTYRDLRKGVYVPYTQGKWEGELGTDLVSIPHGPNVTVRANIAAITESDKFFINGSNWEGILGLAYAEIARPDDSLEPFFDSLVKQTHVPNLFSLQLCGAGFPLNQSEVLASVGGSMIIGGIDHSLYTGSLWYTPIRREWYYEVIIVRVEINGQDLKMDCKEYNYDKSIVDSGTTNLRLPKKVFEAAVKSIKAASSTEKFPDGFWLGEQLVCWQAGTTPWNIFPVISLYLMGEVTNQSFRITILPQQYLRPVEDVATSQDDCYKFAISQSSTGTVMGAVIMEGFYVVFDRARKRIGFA
Sequence of purified human autoBACE-2 (Q9Y5Z0 63-473): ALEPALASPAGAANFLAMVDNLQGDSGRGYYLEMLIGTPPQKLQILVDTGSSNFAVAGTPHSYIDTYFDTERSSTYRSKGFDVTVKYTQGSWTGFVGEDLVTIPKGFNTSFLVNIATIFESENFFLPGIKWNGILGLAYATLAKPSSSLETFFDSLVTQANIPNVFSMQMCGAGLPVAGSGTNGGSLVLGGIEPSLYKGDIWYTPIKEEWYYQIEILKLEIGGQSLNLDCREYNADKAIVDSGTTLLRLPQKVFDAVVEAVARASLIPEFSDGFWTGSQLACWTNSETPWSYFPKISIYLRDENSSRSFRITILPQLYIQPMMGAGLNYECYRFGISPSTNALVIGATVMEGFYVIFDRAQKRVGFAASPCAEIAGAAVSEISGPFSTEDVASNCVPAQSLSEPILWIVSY

As usually defined, the Ki is the equilibrium dissociation constant of an inhibitor or competing ligand from its target. `CN1C(=N)N[C@](C)(c2cc(NC(=S)C(F)F)ccc2F)CS1(=O)=O` [Example 4]: the Ki was 83 nM in test [1] and 7 nM in test [2].

On to `COCC(=S)Nc1ccc(F)c([C@]2(C)CS(=O)(=O)N(C)C(=N)N2)c1` [Example 3], for which the figures for the Ki in test [1] and in test [2] were 152 nM and 2 nM, respectively.

Consider `CN1C(=N)N[C@](C)(c2cc(NC(=S)c3ccc(F)cn3)cc(F)c2F)CS1(=O)=O` [Example 12], for which the Ki in test [1] is 17 nM; in test [2] it was 3 nM.

As to `CN1C(=N)N[C@](C)(c2cc(NC(=S)c3ccc(C(F)(F)F)cn3)cc(F)c2F)CS1(=O)=O` [Example 13], the Ki in test [1] is 30 nM; in test [2], 21 nM.

As for `CN1C(=N)N[C@](C)(c2cc(NC(=S)C(F)F)cc(F)c2F)CS1(=O)=O` [Example 11], the Ki is 95 nM in test [1] and 28 nM in test [2].

As to `COc1cnc(C(=S)Nc2cc(F)c(F)c([C@]3(C)CS(=O)(=O)N(C)C(=N)N3)c2)cn1` [Example 14], the Ki was 8 nM in test [1] and 18 nM in test [2].

For the compound `CN1C(=N)N[C@](C)(c2cc(NC(=S)c3ccc(Cl)cn3)ccc2F)CS1(=O)=O` [Example 1], the Ki in test [1] was 9.1 nM; in test [2], 1 nM.

Consider `COc1ccc(C(=S)Nc2ccc(F)c([C@]3(C)CS(=O)(=O)N(C)C(=N)N3)c2)nc1` [Example 2], for which the Ki was 57 nM in test [1] and 8 nM in test [2].

Turning to `CN1C(=N)N[C@](C)(c2cc(NC(=N)c3ccc(Br)cn3)ccc2F)CS1(=O)=O` [Example 7], the figures for the Ki in test [1] and in test [2] were 371 nM and 148 nM, respectively.

On to `COCC(=S)Nc1cc(F)c(F)c([C@]2(C)CS(=O)(=O)N(C)C(=N)N2)c1` [Example 10], for which the values for the Ki in test [1] and in test [2] were 188 nM and 6 nM, respectively.

Regarding `COc1cnc(C(=S)Nc2ccc(F)c([C@]3(C)CS(=O)(=O)N(C)C(=N)N3)c2)cn1` [Example 4c], the values for the Ki in test [1] and in test [2] were 3 nM and 4 nM, respectively.

For orientation: inhibition means the drop in the measured response relative to a control, in per cent. Low readings indicate little suppression, high ones strong suppression. `CO/N=C(/Nc1ccc(F)c([C@]2(C)CS(=O)(=O)N(C)C(=N)N2)c1)c1ccc(OC)cn1` [Example 5] showed an inhibition at 10 µM in test [1] (@ 10 uM) of 47%. For the same compound, the inhibition constant (Ki) in test [2] was 1450 nM.

With `CO/N=C(/Nc1ccc(F)c([C@]2(C)CS(=O)(=O)N(C)C(=N)N2)c1)c1ccc(Cl)cn1` [Example 6], the Ki is 340 nM in test [1] and 58 nM in test [2].

As to `CN1C(=N)N[C@](C)(c2cc(NC(=S)c3ccc(F)cn3)ccc2F)CS1(=O)=O` [Example 4b], the Ki is 25 nM in test [1] and 2 nM in test [2].

As for `COc1ccc(C(=S)Nc2cc(F)c(F)c([C@]3(C)CS(=O)(=O)N(C)C(=N)N3)c2)nc1` [Example 9], the Ki was 57 nM in test [1] and 15 nM in test [2].

As to `CN1C(=N)N[C@](C)(c2cc(NC(=S)c3ccc(Cl)cn3)cc(F)c2F)CS1(=O)=O` [Example 8], the Ki in test [1] was 9 nM; in test [2], 2 nM.

The values above are taken from patent publication US9447085B2, “Iminothiadiazine dioxides containing a thioamide, amidine, or amide oxime group as BACE inhibitors, compositions, and their use” (Merck Sharp & Dohme Corp., priority 2012, dated 2016).
